In one data set the test system is D-Ala-D-Ala. Put plainly: ITC of binding to dipeptide. The note with it: absence of serum proteins. The text has this: (§1) Trans. R. Soc. Lond. Ser. A-Math. Phys. Eng. […] Wiley, (1998) p 103-111; and Cooper, A., Curr. Opin. Chem. Biol. (1999) 3, 557-563.
Data set [1] relates to N,N′-diacetyl-Lys-D-Ala-D-Ala. Put plainly: ITC of binding to tri-peptide, with and without HSA.
Description: Antibiotics and peptides were dissolved in aqueous buffer (20 mM Na phosphate, 150 mM NaCl, pH 7.4) containing HSA, with gentle stirring immediately before each experiment. Peptide concentrations were determined by weight. […] HSA concentrations were determined by UV absorbance (HSA, ε280=37,700; A280^1%=5.44). Spectra were recorded at room temperature in 1 cm pathlength quartz cuvettes using Shimadzu UV-160A or UV-1601 spectrophotometers, with samples diluted quantitatively with buffer if necessary to give absorbance in the 0.1-1 A range.
Isothermal titration calorimetry was performed using a Microcal VP-ITC instrument at 25° C. and 37° C. using standard operating procedures. […] Samples were degassed gently prior to loading to prevent bubble formation in the calorimeter cell.
A further data set has as its system Lys-D-Ala-D-Lactate. Put plainly: ITC of binding to Lys-D-Ala-D-Lactate. The note with it: absence of serum proteins.
Excerpt: as §1

The subject of the next data set is human α-glycoprotein. Put plainly: Protein binding by isothermal titration microcalorimetry. The note with it: protein […]10^−5 M assumed.
Data set [2] can be described thus: Multimer to monomer population by electrospray ion mass spectroscopy. The settings on record: dalbavancin 0.1 mg/ml in 8:2 water:isopropanol; teicoplanin 50 and 100 μg/mL in water. In kind it is physicochemical.
Description: Experiments were performed using an Applied Biosystem API III+mass spectrometer equipped with a TurboIonSpray source, a Triple Quadrupole analyzer, operating in positive ion mode.
The mass spectra were obtained in electrospray positive mode on a Finnigan LCQ^Deca ion trap instrument previously tuned and calibrated in electrospray mode using Ultramark 1621, caffeine and MRFA (L-metionyl-arginyl-phenilalanyl-arginine).
The mass spectra were obtained in electrospray positive mode on a Finnigan LCQ^Deca ion trap instrument previous tuned and calibrated in electrospray mode using Ultramark 1621, caffeine and MRFA (L-metionyl-arginyl-phenilalanyl-arginine).
The target of another data set is Human albumin (Homo sapiens, UniProt P02768). Put plainly: Protein binding by isothermal titration microcalorimetry. The settings on record: for Calculated percent Binding, Human albumin: albumin 6×10^−4 M assumed.
The target of data set [3] is N,N′-diacetyl-Lys-D-Ala-D-Ala. Put plainly: ITC, 25 C, 0 uM HSA. For orientation: Isothermal titration calorimetry measures the heat released or taken up as one component is titrated into another.
The target in data set [4] is N,N′-diacetyl-Lys-D-Ala-D-Ala. Put plainly: ITC, 10 C, 0 uM HSA.
Data set [5] deals with N,N′-diacetyl-Lys-D-Ala-D-Ala. Put plainly: ITC, 25 C, with 513 uM HSA.

Several values for one entry are separate records, joined by “and”; a condition that tells them apart may be missing. Identical values can stand only once.

Sequence of Human albumin (P02768 25-609): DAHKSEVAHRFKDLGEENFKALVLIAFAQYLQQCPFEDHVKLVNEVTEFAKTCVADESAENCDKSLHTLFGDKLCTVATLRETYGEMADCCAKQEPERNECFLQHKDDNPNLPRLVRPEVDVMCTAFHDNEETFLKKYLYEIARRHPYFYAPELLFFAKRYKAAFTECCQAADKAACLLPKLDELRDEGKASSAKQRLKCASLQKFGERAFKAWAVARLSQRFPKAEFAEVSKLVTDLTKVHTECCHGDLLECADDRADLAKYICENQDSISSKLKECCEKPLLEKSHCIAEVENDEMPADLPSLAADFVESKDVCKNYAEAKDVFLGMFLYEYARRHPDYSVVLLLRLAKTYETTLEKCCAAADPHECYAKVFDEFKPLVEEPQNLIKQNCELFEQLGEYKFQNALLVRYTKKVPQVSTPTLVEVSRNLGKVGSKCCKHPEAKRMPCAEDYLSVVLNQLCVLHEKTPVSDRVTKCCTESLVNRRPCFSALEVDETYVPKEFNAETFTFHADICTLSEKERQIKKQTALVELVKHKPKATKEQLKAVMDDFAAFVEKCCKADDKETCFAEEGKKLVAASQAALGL
Description for Human albumin: (§2) Integrated heat effects, after correction for heats of dilution, were analyzed by non-linear regression using a simple single-site binding model with the standard Microcal ORIGIN software package. Raw data (μcal/sec) for each injection were integrated to give the total heat effect per addition, then divided by amount of injectant to give kcal/mole of injectant. The same integration was applied for control dilution effects, and this was subtracted from the actual titration data. This provided a differential of the binding curve in which the extent of binding is proportional to the total heat liberated (or absorbed). This was then analyzed by non-linear regression methods in terms of various standard binding models.
Description for human α-glycoprotein: as §2

As to `CN[C@H](CC(C)C)C(=O)N[C@H]1C(=O)N[C@@H](CC(N)=O)C(=O)N[C@H]2C(=O)N[C@H]3C(=O)N[C@H](C(=O)N[C@H](C(=O)O)c4cc(O)cc(O)c4-c4cc3ccc4O)[C@H](O)c3ccc(c(Cl)c3)Oc3cc2cc(c3O[C@@H]2O[C@H](CO)[C@@H](O)[C@H](O)[C@H]2O[C@H]2C[C@](C)(N)[C@H](O)[C@H](C)O2)Oc2ccc(cc2Cl)[C@H]1O` [Vancomycin], the “Binding to dipeptide (D-Ala-D-Ala)” value in the data set with D-Ala-D-Ala is given as “no evidence of binding”. In addition, the Kass is 6.90E+05 L M^−1 in data set [1] (10 °C, [HSA] 0 μM); 3.40E+05 L M^−1 and 3.60E+05 L M^−1 in data set [1] (25 °C, [HSA] 0 μM); 2.90E+05 L M^−1 in [1] (25 °C, [HSA] 513 μM). Besides, in data set [1] (control ITC experiments), the “Binding to tri-peptide in the presence of HSA vs absence” value is “comparable to those seen in the absence of HSA”. Further, the “Binding to Lys-D-Ala-D-Lactate” value with Lys-D-Ala-D-Lactate was “no evidence of binding”.

As for Teicoplanin, the “Calculated percent Binding, Human α-glycoprotein” value was 9.6% with human α-glycoprotein (antibiotic 1 μM), 9.1% in the data set on human α-glycoprotein (antibiotic 10 μM) and 6.0% in the data set on human α-glycoprotein (antibiotic 100 μM). In addition, the “Multimers in solution (ESI-MS)” value in data set [2] is on record as “does not show multimeric complexes in solution”. In addition, the “Apparent binding affinity Ka, Human albumin” value at Human albumin (25° C., pH 7.4, ± SD of fit) is reported as 0.96 (±0.08) ×10^5 M^−1. Further, the results for the “Calculated percent Binding, Human albumin” value at Human albumin (antibiotic 1 μM), on Human albumin (antibiotic 10 μM) and on Human albumin (antibiotic 100 μM) were 98.3%, 98.3% and 98.0%, respectively.

A word on the Kd: it is a measure of binding affinity in units of concentration. High values mean a looser complex, low ones a tighter complex. With vancomycin hydrochloride (peptide), in data set [3], the Kd was 2.94 µM and 2.78 µM; the ΔH is -10.7 kcal/mol and -12.9 kcal/mol; the ΔS was -10.6 eu and -17.8 eu. Besides, in data set [4], the Kd worked out at 1.45 µM, the ΔH is -9.49 kcal/mol and the ΔS is -6.8 eu. Moreover, in data set [5], the Kd amounted to 3.45 µM, the ΔH is -10.1 kcal/mol and the ΔS is -8.8 eu.

These data come from patent US20050090433A1 (priority 2002, published 2005).
